Source: US8916586B2, “Anti-angiogenic compound” (University College Dublin—National University of Ireland, …, priority 2011, dated 2014)
“Also recorded” adds a separate entry of the source.

Columns and labels:
[1] = test system: mouse model of oxygen induced retinopathy (OIR); assay: Mouse oxygen-induced retinopathy (OIR) model of ocular neovascularisation; assay type: in vivo; conditions: for avascular area of the retina in treated eyes: postnatal day 12-17, intravitreal
Description: To assess the ability of compound 11B to inhibit ocular neovascularisation in mammalian eyes, 11B was tested in the mouse model of oxygen induced retinopathy (OIR). […] 11B was injected intravitreally into a mouse model of oxygen-induced retinopathy (OIR). The OIR model was generated by placing postnatal day 7 (P7) mouse pups into hyperoxia (75% oxygen) for 5 days and then removing them to normoxia (21%) on postnatal day 12 (P12). The hyperoxic (high oxygen) environment causes retinal blood vessels to regress between P7 and P12. The normoxic environment on P12 is a relatively hypoxic (low oxygen) environment for the mice and causes the growth of new blood vessels (angiogenesis). For all samples, eyes were enucleated, fixed, flat mounted and then stained with an isolectin antibody to visualise the blood vessels. Blood vessels were quantified and those treated with lead compounds compared to controls.

[2] = test system: dermal-derived normal human microvascular endothelial cells (HMVEC-d); assay: Crystal violet-based proliferation assay in HMVEC-d; assay type: cell-based; conditions: 100 nM (FIG. 13), 24 h
Description: HMVEC-d were purchased from Clonetics, San Diego, Calif., USA. Cells were maintained in complete Endothelial Cell Medium (Clonetics® EGM®-2-MV BulletKit®) containing 500 ml of Endothelial Cell Basal Medium-2 and supplemented with hEGF, 0.5 ml; Hydrocortisone, 0.2 ml; GA-1000, 0.5 ml; FBS, 25 ml; VEGF, 0.5 ml; hFGF-B, 2.0 ml; R3-IGF-1, 0.5 ml; Ascorbic Acid, 0.5 ml in a 37° C. humidified atmosphere of 5% CO2/95% air. HMVEC-d were used for experiments between passages 4-8.
The responses to different compound treatments were examined using a crystal violet-based proliferation assay to test the effects of the compounds on cell proliferation. HMVEC-d were seeded in 96-well plates in complete medium at a density of 25,000 cells/cm^2 and allowed to attach in a humidified atmosphere of 5% CO2, 95% air and at 37° C. Cells were treated with the compounds at different concentrations in replicates wells, and cell proliferation was evaluated after 24 h. At the specific time point medium was removed, cells were fixed with 1% glutaraldehyde and stained with a 0.1% crystal violet solution (Pro-lab diagnostics) for 30 min. The plates were then washed extensively in water and air dried. Cell-associated dye was extracted with a 1% solution of Triton X100 and the absorbance was determined at 550 nm using a plate reader (Multiskan Ascent, Lab Systems).

zebrafish larvae [3] = assay: Visual function by optokinetic response (OKR) in zebrafish larvae; assay type: in vivo; conditions: treated from day 2-5 or day 3-5
Description: (§1) Visual function was assessed using the optokinetic response, a behavioural assay that tests the ability of larval zebrafish to track moving stripes (Brockerhoff 2006). […] For these experiments the compounds were screened in zebrafish larvae as described above except that the drug (compound 11B) was added at either day 1, 2, 3 or 4, and all treated larvae were analysed at day 5.

[4] = test system: IL-6 secreted from explant cultures of human colorectal cancers; assay: IL-6 secretion from human colorectal tumour explants (ELISA); assay type: cell-based; conditions: 72 hours
Description: Human colorectal tumour samples were taken directly from the pathology laboratory after surgery once adequate material was taken for diagnostic testing. The tumour samples were washed and stored in DMSO/tumour conditioning media (TCM). The samples were snap-frozen in liquid nitrogen and stored at −80° C. until compound testing was performed. Prior to compound testing, the tumours were thawed and incubated in fresh TCM for 24 hours. […] The TCM solutions were collected and stored at −20° C. and the remaining tumour explants were snap-frozen in liquid nitrogen and stored at −80° C. The protein content of each tumour sample was determined using the BCA protein assay. ELISA was used to determine the levels of VEGF, IL-8, MCP-1, GRO-α, IL-1β and IL-6. The secretion data were normalised according to the tumour sample's protein content.

zebrafish larvae [5] = assay: Gross morphology / toxicity and eye morphology of treated zebrafish larvae; assay type: in vivo; conditions: for toxic effects / gross morphology of larvae: treated 1-5 dpf
Description: Prior to analysis of the intraocular vasculature, the control and treated larvae were observed under an Olympus SZX16 stereo zoom microscope and screened for general malformations. Overall patterning of the vasculature (fin, gut and intersegmental vessels) was examined for abnormalities (FIGS. 7B and 9A).
as §1

[6] = test system: hyaloid vasculature in zebrafish; assay: Zebrafish developmental angiogenesis assay: number of primary branches of hyaloid vasculature on dissected lens; assay type: in vivo
[7] = test system: trunk intersegmental vessels of zebrafish; assay: Quantification of intersegmental vessel number in zebrafish larvae; assay type: in vivo; conditions: for inhibition of developmental angiogenesis of the trunk intersegmental vessels / inhibition at 10 µM: 10 μM; for inhibition of developmental angiogenesis of the trunk intersegmental vessels: added at 6 hours post-fertilisation; for dose-dependence of inhibition of intersegmental vessel development: 0.1-10 μM; for dose-dependence of inhibition of intersegmental vessel development / inhibition at 10 µM: added at 6 hours post fertilisation; for inhibition at 10 µM: Danio rerio, read-out: inhibition of intersegmental vessel formation
Description: […] Larvae were manually dechorionated, euthanised, and fixed in 4% PFA at 4° C. overnight before analysis. The larvae were then washed with PBS and transferred to depression slides for observation under epi-fluorescence in an Olympus SZX16 fluorescent microscope. The number of intersegmental vessels was counted and the average number was graphed for each drug. […] At the highest concentration (10 μM), 11B was seen to inhibit intersegmental vessel formation by 44%. 11F inhibited intersegmental vessel formation by 16% at the highest concentration (10 μM).

Q: With `Oc1ccccc1/C=C/c1ccc2ccccc2n1` [11B] as the molecule, how does the “avascular area of the retina in treated eyes” value ([1]; 0.5 μM) read?
A: ~33%

Q: What about the “avascular area of the retina in treated eyes” value ([1]; 3 μM) of the same molecule?
A: ~30%

Q: What about the “increase in avascular retina relative to the avascular area in the P17 control” value ([1]; intraocular injections) of the same molecule?
A: ~2.4 fold

Q: And the “inhibition of ocular neovascularisation in OIR model” value ([1]; intravitreal injection)?
A: inhibited angiogenesis; also recorded: can inhibit intraocular neovascularisation

Q: What about the “effect on HMVEC-d proliferation” value [2] of the same molecule?
A: no significant effect; also recorded: neither 11B nor 11F had a significant effect

Q: And the “visual function, optokinetic response (OKR)” value (zebrafish larvae [3])?
A: no significant effect; also recorded: not statistically different from controls

Q: What about the “level of IL-6 secreted by human tumour explants” value (from here on “level of IL-6 secreted”) ([4]; 1 μM and 10 μM tested, concentration not given at place) of the same molecule?
A: significantly reduced

Q: And the “level of IL-6 secreted” value ([4]; 1 μM)?
A: significantly reduces

Q: And the “level of IL-6 secreted” value ([4]; 10 μM)?
A: significantly reduces

Q: What about the “wholemount morphology of larvae” value (zebrafish larvae [5]; 10 μM, treated from day 2-5 or day 3-5) of the same molecule?
A: normal

Q: What about the “toxic effects / gross morphology of larvae” value (zebrafish larvae [5]) of the same molecule?
A: do not induce toxic effects

Q: What about the “morphology of eyes in transverse sections (layering of the retina, size of retina/lens, presence of optic nerve)” value (zebrafish larvae [5]; treated larvae) of the same molecule?
A: normal

Q: And the “number of primary branches of hyaloid vasculature” value (“number” for short) ([6]; 5 μM, treated day 2-5)?
A: significant reduction

Q: What about the “number” value ([6]; 5 μM, treated day 3-5) of the same molecule?
A: no significant effect

Q: And the “number” value ([6]; 5 μM, treated day 4-5)?
A: no significant effect

Q: What about the “number” value ([6]; 10 μM, treated day 2-5) of the same molecule?
A: significant reduction

Q: What about the “number” value ([6]; 10 μM, treated day 3-5) of the same molecule?
A: significant reduction

Q: What about the “number” value ([6]; 10 μM, treated day 4-5) of the same molecule?
A: no effect

Q: What about the “time-dependence of inhibition of developmental angiogenesis in the eye” value ([6]; drug added at day 1, 2, 3 or 4, analysed at day 5) of the same molecule?
A: time-dependent effect; also recorded: time-dependent manner

Q: What about the “inhibition of developmental angiogenesis of the trunk intersegmental vessels” value [7] of the same molecule?
A: significant inhibition

Q: And the “dose-dependence of inhibition of intersegmental vessel development” value [7]?
A: dose-dependent and statistically significant manner

Q: What about the inhibition at 10 µM [7] of the same molecule?
A: 44%

Q: And the “effect on existing (earlier formed) intersegmental vessels of the trunk” value ([7]; added from day 1-5)?
A: no effect; also recorded: intact

Q: What does the source list for `COc1cc2c(C3CCCN3C)cnc(Cc3ccc4c(c3)OCO4)c2cc1OC` (stereo not shown) [11F, 1-(1,3-benzodioxol-5-ylmethyl)-6,7-dimethoxy-4-(1-methyl-2-pyrrolidinyl)isoquinoline]?
A: effect on HMVEC-d proliferation [2]: no significant effect; also recorded: neither 11B nor 11F had a significant effect; toxic effects / gross morphology of larvae (zebrafish larvae [5]): do not induce toxic effects; inhibition of developmental angiogenesis of the trunk intersegmental vessels [7]: modest but significant inhibition; dose-dependence of inhibition of intersegmental vessel development [7]: dose-dependent and statistically significant manner; inhibition at 10 µM [7]: 16%
